Literature values in patent publication US20230285429A1, “CANNABINOID ACID FORMULATIONS, DELIVERY SYSTEMS, AND METHODS OF USE” (Flora Growth U.S. Holdings Corp., priority 2022, published 2023).

System: pseudovirus expressing the spike protein
Conditions: human epithelial cell lines, CBGA or CBDA individually

SMILES	infection by pseudovirus expressing the spike protein
C=C(C)[C@@H]1CCC(C)=C[C@H]1c1c(O)cc(CCCCC)c(C(=O)O)c1O [CBDA, cannabidiolic acid]	reduce infection
CCCCCc1cc(O)c(C/C=C(\C)CCC=C(C)C)c(O)c1C(=O)O [CBGA, cannabigerolic acid]	reduce infection
